Data set [1] has as its system MCF7. Put plainly: Cytotoxicity against human MCF7 cells assessed as cell growth inhibition at 30 ug/ml by MTT assay relative to control. The class given is functional. To be noted: read-out: GI.
For data set [2], the target named is Estrogen receptor beta (Mus musculus) (UniProt O08537). Put plainly: Induction of ESR2-mediated osteoblast differentiation in mouse calvarial osteoblast assessed as increase in ALP activity at 1 pM measured after 48 hrs by spectrophotometric analysis. The class given is cell-based.
Chain of Estrogen receptor beta (Mus musculus) (O08537 whole entry): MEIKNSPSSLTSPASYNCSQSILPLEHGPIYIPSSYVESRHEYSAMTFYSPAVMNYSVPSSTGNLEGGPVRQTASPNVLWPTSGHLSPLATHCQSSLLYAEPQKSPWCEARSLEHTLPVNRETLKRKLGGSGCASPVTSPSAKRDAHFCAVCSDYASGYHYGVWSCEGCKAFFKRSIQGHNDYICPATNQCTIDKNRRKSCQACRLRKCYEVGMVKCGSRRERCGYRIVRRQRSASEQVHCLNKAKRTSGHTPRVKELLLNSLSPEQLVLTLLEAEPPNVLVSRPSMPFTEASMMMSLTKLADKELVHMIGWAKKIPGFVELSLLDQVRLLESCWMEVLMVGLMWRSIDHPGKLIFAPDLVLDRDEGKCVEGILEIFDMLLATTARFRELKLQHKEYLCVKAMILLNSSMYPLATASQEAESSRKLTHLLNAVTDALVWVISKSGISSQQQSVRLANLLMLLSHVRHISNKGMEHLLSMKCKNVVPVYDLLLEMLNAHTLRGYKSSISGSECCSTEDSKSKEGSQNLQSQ
Data set [3] has the same target. Put plainly: Induction of ESR2-mediated osteoblast differentiation in mouse calvarial osteoblast assessed as increase in ALP activity at 1 nM measured after 48 hrs by spectrophotometric analysis. It counts as cell-based.
For data set [4] the target is unchanged. Put plainly: Induction of ESR2-mediated osteoblast differentiation in mouse calvarial osteoblast assessed as increase in ALP activity at 100 pM measured after 48 hrs by spectrophotometric analysis. It counts as cell-based.
In data set [5] the test system is Mus musculus. Put plainly: Anti-osteoporosis activity in ovariectomized BALB/c mouse assessed as increase in femur bone volume density at 1 mg/kg, po via gavage administered for 1 month by microCT imaging analysis. The class given is functional, organism-based.
Data set [6] concerns Mus musculus. Put plainly: Anti-osteoporosis activity in ovariectomized BALB/c mouse assessed as increase in trabecular number in femur bone at 1 mg/kg, po via gavage administered for 1 month by microCT imaging analysis. It counts as functional, organism-based.
In data set [7] the test system is Mus musculus. Briefly: Anti-osteoporosis activity in ovariectomized BALB/c mouse assessed as increase in trabecular thickness in femur bone at 1 mg/kg, po via gavage administered for 1 month by microCT imaging analysis. The class given is functional, organism-based.
The subject of data set [8] is Mus musculus. Briefly: Anti-osteoporosis activity in ovariectomized BALB/c mouse assessed as reduction in trabecular spacing in femur bone at 1 mg/kg, po via gavage administered for 1 month by microCT imaging analysis. It counts as functional, organism-based.
Data set [9] has as its system Mus musculus. Put plainly: Anti-osteoporosis activity in ovariectomized BALB/c mouse assessed as reduction in trabecular pattern factor in femur bone at 1 mg/kg, po via gavage administered for 1 month by microCT imaging analysis. The class given is functional, organism-based.
The test system of data set [10] is Calvarial osteoblast. Put plainly: Osteo-blastogenic activity in mouse calvarial osteoblast assessed as upregulation of BMP2 mRNA expression at 1 pM to 100 pM measured after 48 hrs by qPCR analysis. It counts as functional, cell-based.
Data set [11] concerns Calvarial osteoblast. Put plainly: Upregulation of ALP mRNA expression in mouse calvarial osteoblast at 1 pM to 100 pM measured after 24 to 48 hrs by qPCR analysis. It counts as functional, cell-based.
Data set [12] deals with Calvarial osteoblast. Put plainly: Osteo-blastogenic activity in mouse calvarial osteoblast assessed as upregulation of Runx2 mRNA expression at 1 pM to 100 pM measured after 48 hrs by qPCR analysis. The class given is functional, cell-based. For orientation: In qPCR the cycle at which signal appears reflects the starting amount.
The target in data set [13] is Estrogen receptor beta (Mus musculus) (UniProt O08537). Briefly: Induction of ESR2-mediated osteoblast differentiation in mouse calvarial osteoblast assessed as formation of mineralized nodule at 1 to 10 uM measured after 21 days by alizarin red staining based assay. The class given is cell-based.
In data set [14] the test system is Mus musculus. Put plainly: Anti-osteoporosis activity in ovariectomized BALB/c mouse assessed as increase in femur bone volume density at 1 to 5 mg/kg, po via gavage administered for 1 month by microCT imaging analysis. The class given is functional, organism-based.
In data set [15] the test system is Mus musculus. Briefly: Anti-osteoporosis activity in ovariectomized BALB/c mouse assessed as increase in trabecular number in femur bone at 1 to 5 mg/kg, po via gavage administered for 1 month by microCT imaging analysis. The class given is functional, organism-based.
The test system of data set [16] is Mus musculus. Put plainly: Anti-osteoporosis activity in ovariectomized BALB/c mouse assessed as increase in trabecular thickness in femur bone at 1 to 5 mg/kg, po via gavage administered for 1 month by microCT imaging analysis. It counts as functional, organism-based.
The subject of data set [17] is Mus musculus. Briefly: Anti-osteoporosis activity in ovariectomized BALB/c mouse assessed as reduction in trabecular spacing in femur bone at 1 to 5 mg/kg, po via gavage administered for 1 month by microCT imaging analysis. It counts as functional, organism-based.
For data set [18], the system named is Mus musculus. Briefly: Anti-osteoporosis activity in ovariectomized BALB/c mouse assessed as reduction in trabecular pattern factor in femur bone at 1 to 5 mg/kg, po via gavage administered for 1 month by microCT imaging analysis. It counts as functional, organism-based.
In data set [19] the test system is Mus musculus. Briefly: Anti-osteoporosis activity in ovariectomized BALB/c mouse at 5 mg/kg, po via gavage administered for 1 month by microCT imaging analysis. It counts as functional, organism-based.
In data set [20] the test system is Calvarial osteoblast. Briefly: Upregulation of ESR1 protein level in mouse calvarial osteoblast at 1 to 100 pM measured after 48 hrs by Western blot analysis. The class given is functional, cell-based. On the technique in general: Immunoblotting shows a protein as a band on a membrane.
For data set [21], the system named is Calvarial osteoblast. Put plainly: Upregulation of ESR2 protein level in mouse calvarial osteoblast at 1 to 100 pM measured after 48 hrs by Western blot analysis. The class given is functional, cell-based.
Data set [22] has as its system Peritoneal macrophage cell. Put plainly: Cytotoxicity against peritoneal macrophage cells (unknown origin) at 5 to 20 uM by MTT assay. It counts as cell-based. (Tetrazolium assays rely on reduction of a dye to a coloured formazan, in cell work by metabolically active cells.)

Calls of active or inactive are those of the source. The rule behind the calls is not given here.

For the compound `COc1ccc(/C(=C/c2ccccc2)CC(=O)NC(C)C)cc1`, the inhibition of growth at 30 µg/mL in data set [1] is 30 to 48%.
`COc1ccc(/C(C)=C(\CCCCCC(=O)N2CCCC2)c2ccccc2)cc1`: the result in [2] was Active. The inhibition of growth at 30 µg/mL in data set [1] fell in the range of 30 to 48%.
On to `COc1ccc(/C(=C/c2ccccc2)CC(=O)N(C(C)C)C(C)C)cc1`, for which the result in [3] was Active.
With `COc1ccc(/C(C)=C(\CCCC(=O)NCCc2ccccn2)c2ccccc2)cc1`, in data set [4], the outcome was Active.
With `O=C(c1ccc(OCCN2CCCCC2)cc1)c1c(-c2ccc(O)cc2)sc2cc(O)ccc12`, the result in data set [5], in data set [6], in data set [7], in data set [8] and in data set [9] was Active.
On to `CCCCN(C)C(=O)CCCCC/C(=C(/C)c1ccc(OC)cc1)c1ccccc1`, for which the outcome in data set [10], in [2], in [11], in [12], in data set [13] and in data set [14] was Active. For the same compound, the outcome in data set [15], in [16], in [17], in [18], in [19] and in data set [20] was Active. For the same compound, the outcome in data set [21] was Active. In addition, the inhibition of growth at 30 µg/mL in [1] was found to be 32.1%. Further, the Activity result in [22] is given as “Non-Toxic”.
Take `COc1ccc(/C(C)=C(\CCCCCC(=O)NCCc2ccccn2)c2ccccc2)cc1`: in [1], the inhibition of growth at 30 µg/mL is 30 to 48%.
Still for that read-out and setting: the value for `COc1ccc(/C(=C/c2ccccc2)CC(=O)N2CCCC2)cc1` was 30 to 48%.
On to `COc1ccc(/C(=C/c2ccccc2)CC(=O)NCCc2ccccn2)cc1`, for which the inhibition of growth at 30 µg/mL in [1] lay in the range of 30 to 48%.
Same read-out and setting: the value for `COc1ccc(/C(C)=C(\CCCCCC(=O)NCc2ccccn2)c2ccccc2)cc1` was 30 to 48%; that for `COc1ccc(/C(C)=C(\CCCC(=O)NCc2ccccn2)c2ccccc2)cc1` was 30 to 48%.
With `CCCCN(C)C(=O)CCC/C(=C(/C)c1ccc(OC)cc1)c1ccccc1`, the outcome in [2] was Active.
Consider `COc1ccc(/C(C)=C(\CCCC(=O)N2CCCC2)c2ccccc2)cc1`, for which the inhibition of growth at 30 µg/mL in data set [1] is 48.4%.
As to `CCCCCN(C)C(=O)C/C(=C\c1ccccc1)c1ccc(OC)cc1`, the result in data set [2] was Active. Moreover, the inhibition of growth at 30 µg/mL in data set [1] fell in the range of 30 to 48%.

Source of the values: ChEMBL document CHEMBL4619727, “Induced osteoblast differentiation by amide derivatives of stilbene: The possible osteogenic agents” (Bioorg Med Chem Lett, 2020).
